Key:
[1] = Compartmental pharmacokinetic models of test drugs fitted to published rat data
Excerpt: For all the selected drugs, compartmental pharmacokinetic models were developed to inform dose selection in the DCE-MRI studies. The one-compartment, two-compartment, or three-compartment pharmacokinetic models, following intravenous and oral administration, were fitted to published pharmacokinetic data for these drugs in rats. The models assumed linear pharmacokinetics of the six drugs investigated, to allow identification of the model parameters with the limited available rat pharmacokinetic data. […] The model equations, sources of pharmacokinetic data, parameters estimates, and criteria for the dose selection for all the drugs are reported in the Supplementary Material, Section S1. […]
The University of Manchester, Manchester M13 9PL, UK […]
S1. Pharmacokinetic models for test compounds
Pharmacokinetic models were developed for selected test compounds to inform dose selection in the dynamic contrast enhanced magnetic resonance imaging (DCE-MRI) studies, as described below. The one-compartment (Eq. S1–
Eq. S2), two-compartment (Eq. S3–Eq. S5), or three-compartment pharmacokinetic model (Eq. S6 –Eq. S9), following intravenous (IV) and oral administration, was fitted to available pharmacokinetic data in rat (Table S1). The precision of the parameter estimates (% coefficient of variation; CV) was calculated as described previously. […]
dA1(t) = R + k ∙A (t) − k ∙A (t) for 0 < t < Tinf […]
dA1(t)= ka ∙AG(t) − k10 ∙ A1(t) for t > Tinf S1 […]
dA1(t) = R + k ∙A (t) − (k + k )A (t) + k ∙A (t) for 0 < t < Tinf […]
dA1(t) = k ∙A (t) − (k + k )A (t) + k ∙ A (t) for t > Tinf
dA2(t)= k A (t) − k A (t) S4
dA1(t) = Rinf − (k10 + k12 + k13)A1(t) + k21 ∙ A2(t) + k31 ∙ A3(t) for 0 < t < Tinf […]
dA1(t) = −(k + k + k )A (t) + k ∙ A (t) + k ∙ A (t) for t > Tinf
dA2(t) = k A (t) − k A (t) S7
dA3(t) = k A (t) − k A (t) S8
Initial conditions for oral dose and IV bolus (Rinf=0):
• Oral dose: AG(0) = dose ∙F, all the other compartments equal to 0;
• IV bolus: A1(0) = dose, all the other compartments equal to 0.
Where t is time, An(t) is amount in compartment n at time t; Rinf is IV infusion rate; Tinf is the duration of IV infusion; ka, k10, k12, k21, k13 and k31 are rate constants; V1 is volume of compartment 1; F is oral bioavailability; and Y is the meas-ured drug concentration in plasma or blood.
These models assume linear kinetics of the test compounds, despite known non-linearity in pharmacokinetics for […]
The assumption of linear kinetics allowed simplification of the modelling exercise and enabled identification of the model parameters with the available pharmacokinetic data. The models were used to simulate test compound concentrations in plasma under different dosing schedules, to determine suitable doses for in vivo DCE-MRI studies.

rNtcp = test system: rNtcp; set-up: method as in PMID 16258024, PMID 29891589, PMID 21415249, PMID 11883641, PMID 15550721; settings: in vitro; cited from earlier work
rMrp2 = rMrp2 (Rattus norvegicus, UniProt Q63120); set-up: method as in PMID 16258024, PMID 29891589, PMID 21415249, PMID 11883641, PMID 15550721; settings: in vitro; NI = reported not to inhibit the transporter; cited from earlier work
rMrp2, sequence (Q63120 whole entry): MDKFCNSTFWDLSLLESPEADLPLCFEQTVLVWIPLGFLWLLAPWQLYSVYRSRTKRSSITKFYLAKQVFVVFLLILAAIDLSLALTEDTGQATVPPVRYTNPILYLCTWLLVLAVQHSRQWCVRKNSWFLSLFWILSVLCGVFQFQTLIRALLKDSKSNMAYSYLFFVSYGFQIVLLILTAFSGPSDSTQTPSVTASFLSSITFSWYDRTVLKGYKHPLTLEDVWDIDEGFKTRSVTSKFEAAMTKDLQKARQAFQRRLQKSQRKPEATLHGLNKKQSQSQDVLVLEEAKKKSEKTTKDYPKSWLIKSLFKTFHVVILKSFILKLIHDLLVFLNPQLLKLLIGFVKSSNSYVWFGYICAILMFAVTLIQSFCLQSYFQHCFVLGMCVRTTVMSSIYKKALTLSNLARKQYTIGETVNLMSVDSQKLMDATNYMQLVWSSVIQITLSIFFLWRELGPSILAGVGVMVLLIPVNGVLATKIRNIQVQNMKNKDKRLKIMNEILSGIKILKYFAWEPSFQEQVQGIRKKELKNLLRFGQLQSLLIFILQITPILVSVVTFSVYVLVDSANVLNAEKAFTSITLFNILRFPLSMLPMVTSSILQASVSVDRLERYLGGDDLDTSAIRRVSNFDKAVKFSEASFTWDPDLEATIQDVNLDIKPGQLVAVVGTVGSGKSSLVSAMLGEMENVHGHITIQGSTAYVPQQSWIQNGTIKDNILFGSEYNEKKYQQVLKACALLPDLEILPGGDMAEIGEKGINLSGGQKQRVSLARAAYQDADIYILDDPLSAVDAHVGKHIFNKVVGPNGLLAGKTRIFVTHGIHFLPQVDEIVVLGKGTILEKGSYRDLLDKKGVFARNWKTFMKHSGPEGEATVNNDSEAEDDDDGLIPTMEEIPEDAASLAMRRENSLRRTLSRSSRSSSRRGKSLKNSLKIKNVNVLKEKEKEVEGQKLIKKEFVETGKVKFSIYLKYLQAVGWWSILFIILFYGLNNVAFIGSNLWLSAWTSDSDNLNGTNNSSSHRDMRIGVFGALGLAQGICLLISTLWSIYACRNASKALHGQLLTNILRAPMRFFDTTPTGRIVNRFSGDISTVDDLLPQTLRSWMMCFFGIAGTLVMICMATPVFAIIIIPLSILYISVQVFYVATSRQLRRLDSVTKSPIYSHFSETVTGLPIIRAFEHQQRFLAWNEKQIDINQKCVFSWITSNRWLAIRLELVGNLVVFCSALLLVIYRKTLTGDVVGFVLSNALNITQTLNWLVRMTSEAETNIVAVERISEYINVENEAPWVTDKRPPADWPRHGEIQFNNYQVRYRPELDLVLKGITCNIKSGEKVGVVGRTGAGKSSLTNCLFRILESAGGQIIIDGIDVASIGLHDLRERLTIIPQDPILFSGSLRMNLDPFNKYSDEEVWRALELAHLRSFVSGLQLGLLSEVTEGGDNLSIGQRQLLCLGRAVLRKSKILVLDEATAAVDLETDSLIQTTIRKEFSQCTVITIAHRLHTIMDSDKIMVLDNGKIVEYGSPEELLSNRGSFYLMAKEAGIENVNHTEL

OATP1B1 = test system: OATP1B1; set-up: method as in earlier work; settings: in vitro; bracket not explained in the table; ref 30,43-55 and in-house data from Merck & Co.; cited from earlier work
[2] = unbound concentration ratio between hepatocyte and plasma; ref supplement [39] rifampicin, [40] asunaprevir, [41] bosentan, ciclosporin, ketoconazole; cited from earlier work
NTCP = test system: NTCP; set-up: method as in earlier work; settings: in vitro; ref 30,43-55 and in-house data from Merck & Co.; cited from earlier work
[3] = set-up: method as in supplement [33]; settings: clinical; ref supplement [33]; cited from earlier work
[4] = in vivo; cited from earlier work
[5] = two-compartment model, rat plasma, fitted to published IV data
[6] = three-compartment model, rat, IV data (ciclosporin: blood; bosentan: plasma, example estimates)
[7] = one-compartment model, rat, fitted to published PK data

Row | Structure (SMILES) | V1 [1, 5] | k10 [1, 5] | k12 [1, 5] | k21 [1, 5] | IC50 (rNtcp) | IC50 (rMrp2) | IC50 (OATP1B1) | Kpuu [2] | IC50 (NTCP) | V1 [1, 7] | further results
1 | C=C[C@@H]1C[C@]1(NC(=O)[C@@H]1C[C@@H](Oc2ncc(OC)c3ccc(Cl)cc23)CN1C(=O)[C@@H](NC(=O)OC(C)(C)C)C(C)(C)C)C(=O)NS(=O)(=O)C1CC1 [Asunaprevir] | 96.0 mL | 6.79 h⁻¹ | 3.71 h⁻¹ | 1.60 h⁻¹ | 0.6 µM | 11 µM | 0.55 µM | 11.5 | – | – | –
2 | COc1ccccc1Oc1c(NS(=O)(=O)c2ccc(C(C)(C)C)cc2)nc(-c2ncccn2)nc1OCCO [Bosentan] | 32 mL | 5.0 h⁻¹ | 3.8 h⁻¹ | 3.5 h⁻¹ | 0.4 µM | – | 6.6 µM | 3 | 18 µM | – | k10 ([1]; three-compartment model, rat, IV data (ciclosporin: blood; bosentan: plasma, example estimates highly sensitive to initial estimates)): 5.1 h⁻¹; K31 [1, 6]: 0.13 h⁻¹; V1 [1, 6]: 26 mL; k12 [1, 6]: 6.1 h⁻¹; k13 [1, 6]: 0.90 h⁻¹; k21 [1, 6]: 4.3 h⁻¹; treated patients with mild liver dysfunction [3]: about 10%
3 | CCc1ccc(CCOc2ccc(CC3SC(=O)NC3=O)cc2)nc1 (centres unmarked) [Pioglitazone] | – | – | – | – | – | – | – | – | – | 88 mL | F ([1]; oral bioavailability, one-compartment model, rat): 0.66
4 | CO[C@H]1/C=C/O[C@@]2(C)Oc3c(C)c(O)c4c(O)c(c(/C=N/N5CCN(C)CC5)c(O)c4c3C2=O)NC(=O)/C(C)=C\C=C\[C@H](C)[C@H](O)[C@@H](C)[C@@H](O)[C@@H](C)[C@H](OC(C)=O)[C@@H]1C [Rifampicin] | – | – | – | – | – | 20 to 53 µM | 1.9 µM | – | 277 µM | 182.1 mL | k10 [1, 7]: 0.294 h⁻¹; Ki (OATP1B1): 0.67 µM
5 | CCOc1ccc(C[C@@H](CN(CCN(CC(=O)[O-])CC(=O)[O-])CC(=O)[O-])N(CC(=O)[O-])CC(=O)[O-])cc1.[Gd+3].[H+].[H+] [gadoxetate, Gadoxetate] | – | – | – | – | – | – | – | – | – | – | hepatic extraction [4]: approx. 20%

Source: PMC10057977, “Use of In Vivo Imaging and Physiologically-Based Kinetic Modelling to Predict Hepatic Transporter Mediated Drug–Drug Interactions in Rats” (Pharmaceutics, 2023)
